The text below walks through data of patent US10258659B2, “Water soluble defructosylated pea extract, and use thereof as a prebiotic agent” (OLYGOSE, priority 2009, dated 2019).

For this data set the following is noted: human, in vivo.

Marks after values point to notes of the source that are not given here.

For β-galacto-oligosaccharides [β-GOS], the “Abdominal noises F (frequency of the symptoms)” value is given as 1.8 ^b, the “Abdominal noises I (intensity of the symptoms)” value is given as 1.6 ^ab, the “Abdominal pain F (frequency of the symptoms)” value was 1.6 ^ab and the “Abdominal pain I (intensity of the symptoms)” value is 1.5 ^ab. Moreover, the “Bloating F (frequency of the symptoms)” value was 1.6 ^ab, the “Bloating I (intensity of the symptoms)” value is reported as 1.7 ^b, the Cumulative grade is on record as 21.3 ^b and the “Flatulence F (frequency of the symptoms)” value is 2.9 ^b. The “Flatulence I (intensity of the symptoms)” value is recorded as 2.5 ^b, the “Nausea F (frequency of the symptoms)” value is 1.2 ^a, the “Nausea I (intensity of the symptoms)” value is 1.1 ^a and the “Need to defecate F (frequency of the symptoms)” value is on record as 2.1 ^a. For the same substance, the “Need to defecate I (intensity of the symptoms)” value is reported as 1.7 ^a.
